Experimental data as given in patent US20220096650A1 (Glaxosmithkline Intellectual Property Development Limited, priority 2019, published 2022).

How the values were obtained:
[1] = system: CD4 and CD8 cells in PBMC; test: IFNγ and IL-4 production by T cells upon anti-CD3/anti-CD28 stimulation in PBMC; type: cell-based, human; conditions: 48 and 72 hours
Method: This study was repeated two times (n=2) with blood from two different donors. 100 μL PBMCs (1×10^6 cells/mL) in RPMI-1640 with 10% FBS were added into anti-CD3 antibody coated wells with or without soluble 0.5 μg/mL anti-CD28 antibody. […] Three technical replicates were included for each assay condition. At the end of the study, cells were transferred, washed, stained and analyzed by flow cytometry as described in section 3.1. For intracellular staining, cells were fixed by cytofix buffer (BD Biosciences, Catalog #554655) at room temperature for 20 minutes and permeablized by perm/wash buffer (BD Biosciences, catalog #554723) at room temperature for 30 minutes before staining with antibodies or isotype controls.
The raw percentage and MFI data for each marker at each concentration of BCMA ADC was compared to the corresponding IgG control in the statistical analysis. To account for the variability of the different blood donors, a linear mixed effect model was used to analyze the data. […]
For data reporting, the average percentage or average MFI value among three technical replicates was generated at each BCMA ADC concentration and the % difference values were calculated as: % difference=(Avg 916−Avg IgG)*100/Avg IgG, where Avg 916 and Avg IgG represent the average values of the BCMA ADC treatment group and the IgG control group, respectively. […]

[2] = system: NCI-H929 Multiple Myeloma cells; test: IL-10 in supernatants of NCI-H929 cells cultured alone; type: cell-based, human; conditions: 48 hours, 0.1, 1, 10 μg/mL
Method: Fresh, whole Human blood was obtained from three healthy donors from the Upper Providence Blood Donation Unit with syringes coated in liquid sodium heparin (Sagent 10 IU/mL final concentration). Monocytes were isolated from fresh, whole human blood using the RosetteSep Monocyte Enrichment kit (Cat. #15068) and were assessed for expression of cell surface CD14 (BD Bioscience Cat. #562698) using flow cytometry. Isolated Monocytes (1.5×10^6 cells/well) were cultured in 2 mLs of X-Vivo-15 Media supplemented with 1% autologous plasma, 50 ng/mL recombinant human GM-CSF (R&D, 215-GM-050) and 100 ng/mL recombinant human IL-4 (R&D, 204-IL-050) for 7 Days at 37° C./5% CO2. The cultures received a half media change at Day 3 or 4 while maintaining stimulation factor concentrations. NCI-H929 Multiple Myeloma cells were passaged for 2 passages from thaw at 37° C., 5% CO2, 90% humid air in RPMI-1640 supplemented with 10% FBS. Cells were plated at a density of 7.5×10^5 cells/ml in 2 mLs on 12 well plates. […]
FIG. 3C: IL-10 decreased with BCMA ADC treatment in supernatants from NCI-H929 Multiple Myeloma cells cultured alone. IL-10 was measured in Untreated (a), IgG Control (b), 0.1 (c), 1 (d), and 10 μg/mL BCMA ADC (e) treated (48 hours) NCI-H929 Multiple Myeloma cells.

[3] = Hallmarks of immunogenic cell death in vivo and in vitro (Example 7)
multiple myeloma = test: Phase 1 clinical trial in relapsed and refractory multiple myeloma patients; type: in vivo, human
Source text: Multiple myeloma (MM) is a disease that affects plasma cells and leads to devastating clinical features. MM is the second most common hematological malignancy and remains an incurable disease. Therefore, novel targeted therapies are in need.

NCI-H929 = test: Immunogenic cell death markers (ATP, HMGB1, CRT) after 48 hour treatment; type: cell-based, human
Source text: The process of immunogenic cell death can induce the production of danger molecules that lead to the activation of dendritic cells (see FIG. 1A—ICD is a special type of apoptosis often associated with the cellular release of ATP and HMGB1, and exposure of CRT at the cellular membrane. ICD induces an immune response through engagement of the antigen presentation process by dendritic cells (DCs)). […] Anti-BCMA-MMAF induced ATP release, HMGB1 release and CRT exposure only in NCI-H929, a BCMA positive MM cell line). To investigate the effect of NCI-H929 cell killing by BCMA ADC on the activation of dendritic cells, co-culture experiments were carried out with BCMA ADC treated NCI-H929 cells and immature dendritic cells (iDCs) differentiated from human monocytes in vitro with GM-CSF/IL-4 treatment. A number of dendritic cell maturation markers as well as IL-10 and IL-12p70, two major cytokines secreted by dendritic cells upon activation, were monitored in this process to assess the effect of BCMA ADC induced cell death on dendritic cell activation.

CD4+ and CD8+ T cells = test: T cell proliferation upon anti-CD3/anti-CD28 stimulation (CFSE); type: cell-based, human; conditions: 96 hours; 3 donors
Method: Fresh normal peripheral blood isolated CD4+ or CD8+ T cells were received and counted using a Beckman Coulter ViCell then centrifuged at 330 g for 7 minutes. Cells were then stained with Molecular Probes Cell Trace CFSE (cat #C34554) proliferation dye (5-10 μM) in PBS/0.5% BSA. Cells were incubated for 5 minutes on ice prior to a further incubation for 5 minutes on ice in cold RPMI 1640/10% FBS. Any free dye was removed by two further cell centrifugations at 300 g for 5 minutes. Cells were resuspended in complete media RPMI 1640/10% FBS/IL-2 (2.8 ng/mL). Cells were then seeded (10^5 cells/100 μL volume/well) in a 96 well tissue culture plates pre-coated with anti-CD3 (1 μg/mL) and anti-CD28 (1 μg/mL). […] After the 4 day incubation, cell supernatant was harvested and frozen at minus 80° C. and the cells were collected for flow cytometry staining. Analyzed using a CANTO II flow cytometer with 488 nm excitation and emission filters appropriate for fluorescein (FITC) for Cell Trace CFSE. FIG. 4D) Effect of BCMA ADC on proliferation of CD4+ and CD8+ T cells. CD4+ and CD8+ T cells stimulated with anti-CD3 and anti-CD28 antibodies in the presence or absence of various concentrations of BCMA ADC. After 96 hours cell proliferation was analyzed by flow cytometry. Data represent mean±SD from 3 different donors.

What does the source list for GSK2857916?
IFNγ production [1]: no significant effect; IL-4 production [1]: no significant effect; IL-10 in supernatants [2]: decreased; hallmarks of ICD (cell surface calreticulin and other ER stress response proteins, secretion of HMGB1) [3]: induces hallmarks of ICD; overall response rate (multiple myeloma): 60%; HMGB1 release (NCI-H929; cellular supernatant, ELISA, only in NCI-H929): induced; ATP release (NCI-H929; cellular supernatant, luminescence, only in NCI-H929, a BCMA positive MM cell line): induced; CRT exposure (NCI-H929; flow cytometry, only in NCI-H929): induced; proliferation of CD4+ and CD8+ T cells (CD4+ and CD8+ T cells): does not appear to have direct effects
